From US20070280924A1, “Pharmaceutical Preparations For And Treatment Of Ocular Surface and Other Disorders” (priority 2004, published 2007)

Experiments:
[1] = tested on: human corneal epithelial cell lines (HCE-T and CEPI-17-CI.4) and human conjunctival epithelial cells
Procedure: Hypromellose, Carbopol or sodium hyaluronate were used to supplement an ocular surface medium at concentrations ranging from 0.0001% to 0.4%. The pH and osmolarity of all of the resultant formulations were controlled and adjusted to be within physiological range. The biophysical properties, i.e. viscosity and surface tension, were determined with a rheometer and an electronic manometer. Two human corneal epithelial cell lines (HCE-T and CEPI-17-CI.4) and two human conjunctival epithelial cells were used to investigate cell proliferation, viability and migration in response to the formulations by means of a luminescence based ATP-assay, a calcein AM/EthD-1 assay and a colony dispersion assay.

[2] = for comparison; cited from earlier work

Compound | Toxicity [1] | Surface tension [2]
hypromellose | low toxicity | 
O [water] |  | about 70 mN/m
